In ChEMBL document CHEMBL4619734, “Molecule Property Analyses of Active Compounds for Mycobacterium tuberculosis” (J Med Chem, 2020):
Values after ≈ are worked out from the molar mass of the structure shown.

Experiments:
Assay type in all cases: functional
[1] = system: Mycobacterium tuberculosis; assay: Antimycobacterial activity against multi drug-resistant Mycobacterium tuberculosis H37Rv
[2] = system: Mycobacterium tuberculosis; assay: Antimycobacterial activity against Mycobacterium tuberculosis drug resistant clinical isolates
[3] = system: Mycobacterium tuberculosis; assay: Antitubercular activity against Mycobacterium tuberculosis harboring mmpL3
[4] = system: Mycobacterium tuberculosis; assay: Antimycobacterial activity against multi drug-resistant Mycobacterium tuberculosis
[5] = system: Mycobacterium tuberculosis; assay: Antimycobacterial activity against multi drug-resistant Mycobacterium tuberculosis expressing WecA

Cc1cc2nc(CCc3cc(Cl)cc(Cl)c3)[nH]c2cc1C
MIC90 [1]: 5 µM (≈ 1.6 µg/mL)

O=[N+]([O-])c1cn2c(n1)OC[C@@H](OCc1ccc(OC(F)(F)F)cc1)C2 [PRETOMANID]
MIC90 [2]: 0.531 µg/mL (≈ 1.48 µM)

Cc1c(CN2CCN(C)CC2)cc(-c2ccc(Cl)cc2)n1-c1ccc(Cl)cc1
MIC [3]: 0.7 to 6.2 µg/mL (≈ 1.69 to 15 µM)

Cc1c(CN2CCSCC2)cc(-c2ccc(F)cc2)n1-c1ccccc1
MIC [3]: 0.5 µg/mL (≈ 1.36 µM)

CC(C)=CCC/C(C)=C/CNCCNC1C2CC3CC(C2)CC1C3 (stereo unspecified) [SQ109]
MIC [3]: 0.16 to 0.64 µg/mL (≈ 0.484 to 1.94 µM)

CC(C)/N=c1\cc2n(-c3ccc(Cl)cc3)c3ccccc3nc-2cc1Nc1ccc(Cl)cc1 [CLOFAZIMINE]
MIC [4]: 1 µg/mL (≈ 2.11 µM)

C[C@]1(COc2ccc(N3CCC(Oc4ccc(OC(F)(F)F)cc4)CC3)cc2)Cn2cc([N+](=O)[O-])nc2O1 [DELAMANID]
MIC [2]: 0.01 µg/mL (≈ 0.0187 µM)

Cc1c(CN2CCN(c3ccc(C(F)(F)F)cc3)CC2)cc(-c2ccccc2)n1NC(=O)c1ccncc1
MIC [3]: 0.025 to 0.12 µg/mL (≈ 0.0481 to 0.231 µM)

CCN(CC)C/N=c1\cc2n(-c3ccc(Cl)c(Cl)c3)c3ccccc3nc-2cc1Nc1ccc(Cl)c(Cl)c1
MIC [4]: 0.12 µg/mL (≈ 0.205 µM)

CC/N=c1\cc2n(-c3ccc(C(F)(F)F)cc3)c3ccccc3nc-2cc1Nc1ccc(C(F)(F)F)cc1
MIC [4]: 0.25 µg/mL (≈ 0.475 µM)

CCCCc1ccc(NC(=O)C2=CCN(C)C(C(O[C@@H]3O[C@H](CN)[C@@H](O)[C@H]3O)[C@H]3OC(n4ccc(=O)[nH]c4=O)[C@H](O)[C@@H]3O)C(=O)N2C)cc1 (stereo partly specified)
MIC [5]: 6.25 µg/mL (≈ 9.07 µM)
